Assay results: PubChem BioAssay AID1288 (Columbia University Molecular Screening Center, 2008)
pIC50: −log10 of the molar value. Calls of active or inactive are those of the source. How the calls were made is not given here.

Columns and labels:
[1] = inhibitors of TNFa-induced E-selectin expression, confirmation, imaging, retest plus dose response, cell count (AID 1288); conditions: human endothelial cells, TNFa-induced E-selectin, imaging; for cell count: cell count toxicity, at 10 µM, stronger effect = lower value; for inhibition: at 2 µM, stronger effect = higher value;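 on inhibition: 0% = stimulated vehicle wells and 100% = unstimulated vehicle wells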
[2] = test system: human endothelial cells, TNFa-induced E-selectin, imaging; assay: as above

| Compound | cell count [1] [%] | IC50 [2] | pIC50 [2] | inhibition [1] |
| --- | --- | --- | --- | --- |
| CC(C)(C)C(=O)/C(=C/c1cccc([N+](=O)[O-])c1)n1cncn1 | 101 | > 10 µM (inactive) | – | – |
| C=CS(=O)(=O)c1ccc(Oc2ccc(S(=O)(=O)C=C)cc2)cc1 | 95.2 | > 10 µM (inactive) | – | – |
| C#CC(=O)N(c1cccc(OC)c1)C(C(=O)NC1CCCC1)c1cccs1 (stereo unspecified) | 90 | > 10 µM (inactive) | – | – |
| O=Cc1s/c(=N\S(=O)(=O)c2ccccc2)n(CCCCl)c1Cl | 108 | > 10 µM (inactive) | – | – |
| COC(=O)/C=C/S(=O)(=O)c1ccc(NC(C)=O)cc1 | 106 | > 10 µM (inactive) | – | – |
| CC(C)Oc1ccc(/C=N/NC(=O)C(CSCc2ccccc2)NC(=O)c2ccc([N+](=O)[O-])cc2)cc1 (stereo unspecified) | 71.8 | > 10 µM (inactive) | – | – |
| CCOC(=O)CS(=O)(=O)c1nc(-c2ccccc2)cc(C(F)(F)F)n1 | 106 | > 10 µM (inactive) | – | – |
| COc1ccc(NC(=O)/C(Cl)=C(/Cl)S(=O)Cc2ccc(Cl)cc2)cn1 (stereo unspecified) | 0.27 | – | 5.78 | – |
| O=C(OCn1ncc(Br)c(Br)c1=O)c1ccc(F)cc1 | 53.9 | > 10 µM (inactive) | – | – |
| Cc1cc(C)cc(NC(=O)c2ccc([N+](=O)[O-])o2)c1 | 98.3 | – | 5.68 | – |
| COc1ccc(CS(=O)(=O)/C(Cl)=C(/Cl)C(=O)Nc2ccc(OC)nc2)cc1 | 105 | > 10 µM (inactive) | – | – |
| CCN1C/C(=C/c2ccc(OC)c(O)c2)C(=O)/C(=C/c2ccc(OC)c(O)c2)C1 | 15.1 | – | 5.52 | – |
| O=C(OCn1ncc(Cl)c(Cl)c1=O)c1ccccc1Cl | 45.3 | > 10 µM (inactive) | – | – |
| CCc1c(C)c(C#N)c2nc3ccccc3n2c1Cl | 70 | – | 5.70 | – |
| CN1C2CCC1/C(=C/c1ccccn1)C(=O)/C2=C\c1ccccn1 | 51.6 | – | 5.55 | – |
| O=C(Cn1ncc(Cl)c(Cl)c1=O)N1CCc2ccccc21 | 40 | – | 5.61 | – |
| C=CCSc1nc2ccccc2n1C(=O)/C=C/c1cc(OC)c(OC)c(OC)c1 | 24.8 | – | 5.66 | – |
| O=C(c1ccc([N+](=O)[O-])cc1)N(Cc1ccc(Br)cc1)N1C(=O)CCCC1=O | 95.3 | – | 5.17 | – |
| O=S(=O)(/C(=C/c1ccc(C(F)(F)F)cc1)c1nc2ccccc2[nH]1)c1ccccc1 | 104 | > 10 µM (inactive) | – | – |
| O=C(/C=C/c1cccc([N+](=O)[O-])c1)n1cnc2ccccc21 | 19.1 | – | 5.42 | – |
| CCOc1cc(C(=O)NCc2ccc(-c3nc4ccccc4o3)cc2)cc(OCC)c1OCC | 22.9 | – | 5.62 | – |
| N#Cc1ccc(-c2cccnc2)nc1SCc1ccc(Cl)c(Cl)c1 | 2.48 | – | 5.56 | – |
| Cc1ccc(Cl)c(NC(=O)COC(=O)c2ccccc2C(=O)c2ccc(Cl)c([N+](=O)[O-])c2)c1Cl | 96.8 | > 10 µM (inactive) | – | – |

| Compound | cell count [1] [%] | IC50 [2] | pIC50 [2] | inhibition [1] |
| --- | --- | --- | --- | --- |
| Cc1c(Nc2cc(Cl)c3nonc3c2[N+](=O)[O-])c(=O)n(-c2ccccc2)n1C | 66.3 | – | 5.18 | – |
| Cc1ccc(C(=O)OCn2ncc(Cl)c(Cl)c2=O)cc1 | 101 | > 10 µM (inactive) | – | – |
| COc1ccc(NC(=O)c2cc3c(Cl)nc4ccccc4c3s2)c(OC)c1 | 89.6 | > 10 µM (inactive) | – | – |
| COc1ccc(NC(=O)/C(Cl)=C(/Cl)S(=O)(=O)Cc2ccc(C)cc2)cn1 | 89.6 | > 10 µM (inactive) | – | – |
| Oc1ccc(N2CCN(c3ncnc4sc(-c5ccccc5)cc34)CC2)cc1 | 25.6 | – | 5.73 | – |
| CC(C)(C)C(=O)/C(=C\c1ccc([N+](=O)[O-])cc1)n1cncn1 | 94.9 | > 10 µM (inactive) | – | – |
| Cc1ccc(-c2nc(NC(=O)c3nn(C)cc3[N+](=O)[O-])sc2C)cc1C | 106 | > 10 µM (inactive) | – | – |
| COc1cccc(-n2nc(C#N)c(Cl)cc2=O)c1 | 104 | > 10 µM (inactive) | – | – |
| CN(C)c1nc(C=C(C#N)C#N)c(Cl)n1-c1ccc(F)cc1 | 46.6 | – | 5.76 | – |
| COc1ccc(-c2nnc(SCC(=O)N3CCOCC3)o2)cc1OC | 18.5 | – | 5.39 | – |
| CCOC(=O)/C=C/S(=O)(=O)c1ccc(NC(C)=O)cc1 | 6.27 | – | 5.86 | – |
| O=C(OCn1ncc(Cl)c(Cl)c1=O)c1cccc(C(F)(F)F)c1 | 102 | > 10 µM (inactive) | – | – |
| COC(=O)C1CN(C#N)N(c2ccc(Cl)cc2)C12c1ccccc1-c1ccccc12 (stereo unspecified) | 113 | > 10 µM (inactive) | – | – |
| O=C(Nc1ccc2nc(SCc3ccc(Cl)cc3)sc2c1)c1ccccc1C(=O)N1CCOCC1 | 40 | – | 5.55 | – |
| O=C(Nc1nnc(-c2ccco2)s1)C1CC1 | – | – | – | 1.62% (inactive) |
| O=C(/C=C/c1ccccc1)N1CCC(Cc2ccccc2)CC1 | – | – | – | 9.46% (inactive) |
| Clc1ccc(Nc2nc3cccnc3s2)cc1 | – | – | – | 7.79% (inactive) |
| COc1ccccc1N1CCN(C(=O)c2ccc(Br)s2)CC1 | – | – | – | 0.09% (inactive) |
| COc1ccc(-c2n[nH]c(C(F)(F)F)c2-c2cc3ccccc3o2)c(O)c1 | – | – | – | 3.2% (inactive) |
| CCN1C(=O)/C(=C\c2cn(-c3ccccc3)nc2-c2cccnc2)SC1=S | – | – | – | 28% (inactive) |
| COc1ccc(C)cc1-n1nnnc1SCC(=O)Nc1cccnc1Cl | – | – | – | -16.5% (inactive) |
| CCC1Sc2ccccc2N(CC(=O)NCc2ccc3c(c2)OCO3)C1=O (stereo unspecified) | – | – | – | 9.94% (inactive) |
| COc1ccccc1N(Cc1ccccc1)S(=O)(=O)c1cccc(C(=O)Nc2ccc(C(C)=O)cc2)c1 | – | – | – | 14.8% (inactive) |

| Compound | cell count [1] [%] | IC50 [2] | pIC50 [2] | inhibition [1] |
| --- | --- | --- | --- | --- |
| O=c1c2ccccc2n2c(-c3cccc(F)c3)nnc2n1Cc1ccccc1 | – | – | – | -8.49% (inactive) |
| O=C1NCCCc2c1oc1cc(Br)c(O)c(Br)c21 | – | – | – | 15.8% (inactive) |
| CC(=O)Nc1ccc(OCCF)cc1 | – | – | – | 0.31% (inactive) |
| CC1CC1c1ccc(/C=C(\C#N)C(=O)Nc2ccc(Cl)cc2)o1 (stereo unspecified) | – | – | – | 7.94% (inactive) |
| Cc1nc(=O)c(-c2ccccc2)c(C)n1-c1ccc(S(N)(=O)=O)cc1 | – | – | – | 42.4% (inactive) |
| CC(OC(=O)CCN1C(=O)c2cccc([N+](=O)[O-])c2C1=O)C(=O)Nc1cc(Cl)cc(Cl)c1 (stereo unspecified) | – | – | – | 36.2% (inactive) |
| COc1ccc2cc(CN(CCO)C(=O)c3ccccc3F)c(=O)[nH]c2c1 | – | – | – | 12.6% (inactive) |
| CCC(Sc1nc2c(c(=O)n1CC)SC(C)C2)C(=O)OC (stereo unspecified) | – | – | – | 6.81% (inactive) |
| COc1ccc(OCC(=O)N2CCN(Cc3c[nH]c4ccccc34)CC2)cc1 | – | – | – | -1.94% (inactive) |
| CN1c2ccccc2C2(C)CCCC3=Cc4cccc([N+](=O)[O-])c4OC312 (stereo unspecified) | – | – | – | 2.99% (inactive) |
| CCCNc1ncnc2sc(C)c(C)c12 | – | – | – | 12.7% (inactive) |
| CC1CC(Nc2ccccc2)=CC(=O)O1 (stereo unspecified) | – | – | – | -4.3% (inactive) |
| COc1cccc(N2CC(C(=O)Nc3nnc(SCC(=O)c4ccccc4)s3)CC2=O)c1 (stereo unspecified) | – | – | – | 9.31% (inactive) |
| Cc1oc2c(C)c(O)ccc2c(=O)c1-c1cnn(-c2ccccc2)c1 | – | – | – | -7.41% (inactive) |
| COc1cc(CNCc2ccco2)ccc1OCc1ccccc1 | – | – | – | 11.6% (inactive) |
| Cc1ccc(C)n1NC(=O)c1cccs1 | – | – | – | 7.45% (inactive) |
| COc1ccccc1CCNC(=O)c1cnccn1 | – | – | – | 16.6% (inactive) |
| CCc1cccc(CC)c1NC(=O)COC(=O)c1cccc(-c2ccc(OC(C)=O)cc2)c1 | – | – | – | 1.97% (inactive) |
| COC(=O)c1cc(Br)c(=O)n(Cc2ccncc2)c1 | – | – | – | 6.86% (inactive) |
| Cc1cc(C)nc(/N=C2\NC(=O)CC(C(=O)O)N2c2ccc(Cl)cc2Cl)n1 (stereo unspecified) | – | – | – | 0.87% (inactive) |
| COc1ccc(-c2nc3cnccn3c2NC(C)(C)CC(C)(C)C)cc1O | – | – | – | 6.02% (inactive) |
| CC(CCc1ccccc1)NC(=O)/C=C/c1ccc(Cl)cc1 (stereo unspecified) | – | – | – | 14.9% (inactive) |
| C=CCNC(=S)NNC(=O)c1ccc(OCC)cc1 | – | – | – | 1.76% (inactive) |

| Compound | cell count [1] [%] | IC50 [2] | pIC50 [2] | inhibition [1] |
| --- | --- | --- | --- | --- |
| CS(=O)(=O)N1CCc2cc(-c3csc(NC(=O)Cc4cccs4)n3)ccc21 | – | – | – | 11.6% (inactive) |
| O=C(O)CSc1nnc(-c2ccncc2)n1CCc1ccccc1 | – | – | – | 28.9% (inactive) |
| O=C(Nc1ccccc1)N(CCc1ccncc1)C1CCCCC1 | – | – | – | 5.75% (inactive) |
| COc1ccc(C(=O)/C=C/c2ccc(F)cc2)c(OC(=O)c2ccc([N+](=O)[O-])cc2)c1 | – | – | – | 5.11% (inactive) |
| Cc1cc(-n2nc(C)cc2C)nc(NS(=O)(=O)c2ccccc2)n1 | – | – | – | 14.8% (inactive) |
| COc1ccc(-n2c(COc3ccccc3)nnc2SCC(N)=O)cc1 | – | – | – | 42.3% (inactive) |
| COc1ccc2nc(SCc3nc(N)nc(Nc4ccccc4)n3)[nH]c2c1 | – | – | – | 6.2% (inactive) |
| O=S1(=O)CCN(CCc2c[nH]c3ccccc23)CC1 | – | – | – | -4.95% (inactive) |
| Cc1ccc2c(c1)C(c1ccc(F)cc1)N(C(=O)c1cc3ccccc3oc1=O)CC(=O)N2 (stereo unspecified) | – | – | – | -3.89% (inactive) |
| Cc1nc(SCC(N)=O)c([N+](=O)[O-])[nH]1 | – | – | – | 9.44% (inactive) |
| O=C(c1cccs1)N(C(=O)c1cccs1)c1ccc(Br)cn1 | – | – | – | 15.4% (inactive) |
| CCC(=O)NC(c1ccc([N+](=O)[O-])cc1)c1c(O)ccc2ccccc12 (stereo unspecified) | – | – | – | 0.15% (inactive) |
| Cn1cccc1/C=C1/C(=O)NC(=O)N(Cc2ccccc2)C1=O | – | – | – | 35.4% (inactive) |
| CC1CN(C(=O)/C(C#N)=C2\N=C(NC(=O)c3ccccc3Cl)c3ccccc32)CC(C)O1 (stereo unspecified) | – | – | – | -0.23% (inactive) |
| CCOC(=O)c1cc(-c2ccccc2)sc1NC(=S)Nc1cccc(C)n1 | – | – | – | -0.25% (inactive) |
| CCN1c2ccccc2-c2nc3ccccc3n2C1c1cccnc1 (stereo unspecified) | – | – | – | 1.05% (inactive) |
| CN1CCCN(S(=O)(=O)c2ccc(Cl)c(Cl)c2)CC1 | – | – | – | 0.45% (inactive) |
| CC(=O)N[C@@H](Cc1c[nH]c2ccccc12)C(=O)OCC(=O)Nc1ccc(Cl)c(S(=O)(=O)N(C)C)c1 | – | – | – | 7.98% (inactive) |
| O=C1CC(c2ccccc2)n2nc(NC(=O)C3CCCO3)nc2N1 (stereo unspecified) | – | – | – | -5.55% (inactive) |
| CN1CCN(C(c2ccc(F)cc2)c2nnnn2Cc2cccs2)CC1 (stereo unspecified) | – | – | – | 10.2% (inactive) |
